From the supplement of paper PMC10307832

Key:
Test in all cases: relative viability (nuclei count vs DMSO), 5 days (fraction); higher = more cells survive
[1] = tested on: A-427
Procedure, shortened: (§1)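 Relative viability is defined as nuclei in treated wells over nuclei in vehicle wells. Duplicate plates were run and medians reported. Lung cancer cell lines in 1536-well plates were dosed by pin tool one day after seeding, with one drug or with a fixed anchor-drug dose plus five library-drug doses (not always all listed) in √10 steps, and nuclei were counted after 5 days.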

[2] = tested on: CAL-12T
Procedure, shortened: as §1

[3] = tested on: LK-2
Procedure, shortened: as §1

[4] = tested on: NCI-H1623
Procedure, shortened: as §1

[5] = tested on: NCI-H1650
Procedure, shortened: as §1

[6] = tested on: NCI-H1734
Procedure, shortened: as §1

[7] = tested on: NCI-H2009
Procedure, shortened: as §1

[8] = tested on: UMC-11
Procedure, shortened: as §1

## COc1nc(C)cnc1NS(=O)(=O)c1cccnc1-c1ccc(-c2nnco2)cc1 [Zibotentan] + Cc1nc(Nc2ncc(C(=O)Nc3c(C)cccc3Cl)s2)cc(N2CCN(CCO)CC2)n1 [Dasatinib] (partner 0.075 µM)
[1]; first compound 0.08 µM
  relative viability: 0.908
[1]; first compound 0.253 µM
  relative viability: 0.69
[1]; first compound 0.8 µM
  relative viability: 0.7
[1]; first compound 2.53 µM
  relative viability: 0.828
[2]; first compound 0.08 µM
  relative viability: 0.484
[2]; first compound 0.253 µM
  relative viability: 0.473
[2]; first compound 0.8 µM
  relative viability: 0.34
[2]; first compound 2.53 µM
  relative viability: 0.479
[3]; first compound 0.08 µM
  relative viability: 0.293
[3]; first compound 0.253 µM
  relative viability: 0.221
[3]; first compound 0.8 µM
  relative viability: 0.275
[3]; first compound 2.53 µM
  relative viability: 0.318
[4]; first compound 0.08 µM
  relative viability: 0.533
[4]; first compound 0.8 µM
  relative viability: 0.567
[4]; first compound 2.53 µM
  relative viability: 0.507
[5]; first compound 0.08 µM
  relative viability: 0.35
[5]; first compound 0.8 µM
  relative viability: 0.27
[5]; first compound 2.53 µM
  relative viability: 0.4
[6]; first compound 0.08 µM
  relative viability: 0.484
[6]; first compound 0.253 µM
  relative viability: 0.42
[6]; first compound 0.8 µM
  relative viability: 0.487
[6]; first compound 2.53 µM
  relative viability: 0.564
[7]; first compound 0.08 µM
  relative viability: 0.287
[7]; first compound 0.253 µM
  relative viability: 0.28
[7]; first compound 0.8 µM
  relative viability: 0.306
[7]; first compound 2.53 µM
  relative viability: 0.292
[8]; first compound 0.08 µM
  relative viability: 0.394
[8]; first compound 0.253 µM
  relative viability: 0.436
[8]; first compound 0.8 µM
  relative viability: 0.475
[8]; first compound 2.53 µM
  relative viability: 0.469

## CCN(CC)CCCCNc1ncc2cc(-c3cc(OC)cc(OC)c3)c(NC(=O)NC(C)(C)C)nc2n1 + Cc1nc(Nc2ncc(C(=O)Nc3c(C)cccc3Cl)s2)cc(N2CCN(CCO)CC2)n1 [Dasatinib] (partner 0.075 µM)
[1]; first compound 0.01 µM
  relative viability: 0.749
[1]; first compound 0.03162 µM
  relative viability: 0.647
[1]; first compound 0.1 µM
  relative viability: 0.924
[1]; first compound 0.3162 µM
  relative viability: 0.646
[1]; first compound 1 µM
  relative viability: 0.565
[2]; first compound 0.01 µM
  relative viability: 0.389
[2]; first compound 0.03162 µM
  relative viability: 0.525
[2]; first compound 0.1 µM
  relative viability: 0.435
[2]; first compound 0.3162 µM
  relative viability: 0.371
[2]; first compound 1 µM
  relative viability: 0.417
[3]; first compound 0.01 µM
  relative viability: 0.29
[3]; first compound 0.03162 µM
  relative viability: 0.267
[3]; first compound 0.1 µM
  relative viability: 0.254
[3]; first compound 0.3162 µM
  relative viability: 0.188
[3]; first compound 1 µM
  relative viability: 0.212
[4]; first compound 0.01 µM
  relative viability: 0.504
[4]; first compound 0.03162 µM
  relative viability: 0.449
[4]; first compound 0.1 µM
  relative viability: 0.579
[4]; first compound 0.3162 µM
  relative viability: 0.571
[4]; first compound 1 µM
  relative viability: 0.516
[5]; first compound 0.01 µM
  relative viability: 0.319
[5]; first compound 0.03162 µM
  relative viability: 0.286
[5]; first compound 0.1 µM
  relative viability: 0.375
[5]; first compound 0.3162 µM
  relative viability: 0.21
[5]; first compound 1 µM
  relative viability: 0.191
[6]; first compound 0.01 µM
  relative viability: 0.508
[6]; first compound 0.03162 µM
  relative viability: 0.507
[6]; first compound 0.1 µM
  relative viability: 0.521
[6]; first compound 0.3162 µM
  relative viability: 0.543
[6]; first compound 1 µM
  relative viability: 0.436
[7]; first compound 0.01 µM
  relative viability: 0.299
[7]; first compound 0.03162 µM
  relative viability: 0.316
[7]; first compound 0.1 µM
  relative viability: 0.347
[7]; first compound 0.3162 µM
  relative viability: 0.292
[7]; first compound 1 µM
  relative viability: 0.246
[8]; first compound 0.01 µM
  relative viability: 0.541
[8]; first compound 0.03162 µM
  relative viability: 0.485
[8]; first compound 0.1 µM
  relative viability: 0.722
[8]; first compound 0.3162 µM
  relative viability: 0.581
[8]; first compound 1 µM
  relative viability: 0.405
